ChEMBL document CHEMBL5380796, “Small Molecular Mimetics of Antimicrobial Peptides as a Promising Therapy To Combat Bacterial Resistance” (J Med Chem, 2023)
Converted amounts (≈) assume the structure as drawn. Non-standard residues stand in square brackets, D forms with d. Residues, ends and D or L forms follow the SMILES beside them. Dip = N[C@H](C(=O)O)C(c1ccccc1)c1ccccc1; 2Nal = N[C@@H](Cc1ccc2ccccc2c1)C(=O)O

How the values were obtained:
[1] = system: Staphylococcus aureus; assay: Antibacterial activity against Staphylococcus aureus assessed as bacterial growth inhibition; assay type: functional
[2] = system: Escherichia coli; assay: Antibacterial activity against Escherichia coli assessed as bacterial growth inhibition; assay type: functional
[3] = system: Micrococcus luteus; assay: Antibacterial activity against Micrococcus luteus DSM 1790 assessed as bacterial growth inhibition by microdilution assay; assay type: functional
[4] = system: Staphylococcus aureus; assay: Antibacterial activity against Staphylococcus aureus ATCC 25923 assessed as bacterial growth inhibition by microdilution assay; assay type: functional
[5] = system: Staphylococcus aureus; assay: Antibacterial activity against Staphylococcus aureus ATCC 25923 assessed as bacterial growth inhibition; assay type: functional
[6] = system: Staphylococcus aureus; assay: Antibacterial activity against Staphylococcus aureus assessed as bacterial growth inhibition measured after 24 hrs by CLSI based micro broth double dilution method; assay type: functional
[7] = system: Escherichia coli; assay: Antibacterial activity against Escherichia coli assessed as bacterial growth inhibition measured after 24 hrs by CLSI based micro broth double dilution method; assay type: functional
[8] = system: Staphylococcus aureus; assay: Antibacterial activity against methicillin-resistant Staphylococcus aureus ATCC 33591 assessed as bacterial growth inhibition; assay type: functional
[9] = system: Pseudomonas aeruginosa; assay: Antibacterial activity against Pseudomonas aeruginosa ATCC 27853 assessed as bacterial growth inhibition; assay type: functional; details: ATCC27853
[10] = system: Escherichia coli; assay: Antibacterial activity against Escherichia coli ATCC 25922 assessed as bacterial growth inhibition; assay type: functional
[11] = system: Clostridioides difficile; assay: Antibacterial activity against Clostridium difficile UK6 assessed as bacterial growth inhibition; assay type: functional
[12] = system: Klebsiella pneumoniae; assay: Antibacterial activity against Klebsiella pneumoniae ATCC 13383 assessed as bacterial growth inhibition; assay type: functional
[13] = system: Staphylococcus epidermidis; assay: Antibacterial activity against methicillin-resistant Staphylococcus epidermidis RP62A assessed as bacterial growth inhibition; assay type: functional
[14] = system: Enterococcus; assay: Antibacterial activity against […] assessed as bacterial growth inhibition; assay type: functional
[15] = system: Escherichia coli; assay: Antibacterial activity against Escherichia coli ATCC 25922 assessed as bacterial growth inhibition incubated for 12 to 16 hrs by microtiter plate reader based analysis; assay type: functional; details: time 12-16 hrs
[16] = system: Pseudomonas aeruginosa; assay: Antibacterial activity against Pseudomonas aeruginosa ATCC 27853 assessed as bacterial growth inhibition incubated for 12 to 16 hrs by microtiter plate reader based analysis; assay type: functional; details: time 12-16 hrs
[17] = system: Staphylococcus aureus; assay: Antibacterial activity against methicillin-resistant Staphylococcus aureus ATCC 33592 assessed as bacterial growth inhibition incubated for 12 to 16 hrs by microtiter plate reader based analysis; assay type: functional; details: time 12-16 hrs
[18] = system: Staphylococcus epidermidis; assay: Antibacterial activity against methicillin-resistant Staphylococcus epidermidis RP62A assessed as bacterial growth inhibition incubated for 12 to 16 hrs by microtiter plate reader based analysis; assay type: functional; details: time 12-16 hrs
[19] = system: Enterococcus faecalis; assay: Antibacterial activity against vancomycin- resistant Enterococcus faecalis ATCC 700802 assessed as bacterial growth inhibition incubated for 12 to 16 hrs by microtiter plate reader based analysis; assay type: functional; details: ATCC700802, time 12-16 hrs
[20] = Hemolytic activity in human RBC incubated for 10 mins by absorbance based analysis; assay type: toxicity, cell-based, Erythrocyte; details: red blood cells (erythrocytes)
[21] = system: Pseudomonas aeruginosa; assay: Antibacterial activity against Pseudomonas aeruginosa assessed as bacterial growth inhibition; assay type: functional
[22] = system: Klebsiella pneumoniae; assay: Antibacterial activity against Klebsiella pneumoniae assessed as bacterial growth inhibition; assay type: functional
[23] = Cytotoxicity against mouse 3T3 cells assessed as reduction in cell viability; assay type: toxicity, cell-based; details: NIH3T3 cells
[24] = Cytotoxicity against human HepG2 cells assessed as reduction in cell viability; assay type: toxicity, cell-based
[25] = system: Staphylococcus aureus; assay: Antibacterial activity against methicillin-resistant Staphylococcus aureus assessed as bacterial growth inhibition by broth microdilution method; assay type: functional
[26] = system: Escherichia coli; assay: Antibacterial activity against Escherichia coli assessed as bacterial growth inhibition by broth microdilution method; assay type: functional

## CC(C)CCOC(=O)[C@H](CC(C)C)NC(=O)[C@@H](CCCNC(=N)N)NC(=O)[C@@H](CCCCN)NC(=O)COc1ccc2ccccc2c1-c1c(OCCC(C)C)ccc2ccccc12
[1]
  MIC: 2 µg/mL (≈ 2.27 µM)

## CC(C)(C)c1cc(C(C)(C)C)c2[nH]c(C(C)(C)C)c(C[C@H](N)C(=O)N[C@@H](CCCNC(=N)N)C(=O)NCc3ccccc3)c2c1
[1]
  MIC: 2.5 µg/mL (≈ 4.05 µM)
[2]
  MIC: 10 µg/mL (≈ 16.2 µM)

## COC(=O)[C@H](CCCNC(=N)N)NC(=O)[C@H](Cc1c(C(C)(C)C)[nH]c2c(C(C)(C)C)cc(C(C)(C)C)cc12)NC(=O)[C@@H](N)CCCNC(=N)N
[1]
  MIC: 5 µg/mL (≈ 7.15 µM)
[2]
  MIC: 20 µg/mL (≈ 28.6 µM)

## CC(C)(C)c1ccc(CC(N)C(=O)NC(CCCNC(=N)N)C(=O)Nc2cc(NC(=O)C(CCCNC(=N)N)NC(=O)C(N)Cc3ccc(C(C)(C)C)cc3)cc(C(N)=O)c2)cc1 (centres undefined)
[3]
  MIC: 1.9 µg/mL
[4]
  MIC: 1.9 µg/mL
[5]
  MIC: 1.9 µg/mL (≈ 2.18 µM)

## CCCOc1c2cc(C[N+](C)(C)C)cc1Cc1cc(C[N+](C)(C)C)cc(c1OCCC)Cc1cc(C[N+](C)(C)C)cc(c1OCCC)Cc1cc(C[N+](C)(C)C)cc(c1OCCC)C2
[6]
  MIC: 16 µg/mL
[7]
  MIC: 16 µg/mL

## CCCCCCN1C(=N)N(CC(=O)Nc2cccc(NC(=O)CN3C[C@H](Cc4ccccc4)N(CCCCCC)C3=N)c2)C[C@@H]1Cc1ccccc1
[8]
  MIC: 0.16 µg/mL (≈ 0.226 µM)
[9]
  MIC: 6 µg/mL (≈ 8.49 µM)
[10]
  MIC: 1.5 µg/mL (≈ 2.12 µM)
[11]
  MIC: 1 µg/mL (≈ 1.41 µM)
[12]
  MIC: 1.5 µg/mL (≈ 2.12 µM)
[13]
  MIC: 0.75 µg/mL (≈ 1.06 µM)
[14]
  MIC: 0.75 µg/mL (≈ 1.06 µM)

## CCCCCCCCCCCCCCCC(=O)N[C@@H](CCCCN)C(=O)N[C@@H](Cc1ccccc1)CN(CC(N)=O)C(=O)CCCN
[15]
  MIC: 4 µg/mL (≈ 6.07 µM)
[16]
  MIC: 2 µg/mL (≈ 3.04 µM)
[17]
  MIC: 2 µg/mL (≈ 3.04 µM)
[18]
  MIC: 2 µg/mL (≈ 3.04 µM)
[19]
  MIC: 2 µg/mL (≈ 3.04 µM)
[20]
  HC50 at 10 min: 150 µg/mL

## CC(C)NC(=O)N[C@H](CNC(=O)N[C@@H](CCCCN)CNC(=N)N[C@H](CNC(=O)N[C@H](CNC(=O)N[C@@H](CCCCN)CNC(=O)N[C@H](CNC(=O)N[C@@H](CCCCN)CNC(N)=O)Cc1c[nH]c2ccccc12)C(C)C)Cc1c[nH]c2ccccc12)C(C)C
[1]
  MIC: 32 µg/mL (≈ 25.4 µM)
[2]
  MIC: 64 µg/mL (≈ 50.8 µM)
[21]
  MIC: 256 µg/mL (≈ 203 µM)

## CC(C)(C)c1cc(NC(=O)c2cc(OCCN)cc(C(=O)Nc3cc(C(C)(C)C)cc(NC(=O)[C@H](N)CCCNC(=N)N)c3SCCN)c2)c(SCCN)c(NC(=O)[C@H](N)CCCNC(=N)N)c1
[1]
  MIC: 12.5 µg/mL (≈ 12.8 µM)
[2]
  MIC: 12.5 µg/mL (≈ 12.8 µM)

## CC(=O)c1cccc(C(=O)Nc2cc(C(C)(C)C)cc(NC(=O)c3cccc(C(=O)Nc4cc(C(C)(C)C)cc(N)c4SCCN)c3)c2SCCN)c1
[2]
  MIC: 19 µg/mL (≈ 25.2 µM)
[22]
  MIC: 66 µg/mL (≈ 87.4 µM)

## COC(=O)[C@@H]1CCCCc2cc3ccccc3c(c2OC)-c2c(OC)c(cc3ccccc23)CC(NC(C)=O)C(=O)N[C@H](CCCCN)C(=O)N1 (some centres undefined)
[1]
  MIC: 15 µg/mL (≈ 21.5 µM)

## COc1cc(OC)c(C(=O)Nc2cc(C(F)(F)F)cc(NC(=O)CCCCNC(=N)N)c2SCCN)cc1C(=O)Nc1cc(C(F)(F)F)cc(NC(=O)CCCCNC(=N)N)c1SCCN
[1]
  MIC: 0.2 µg/mL (≈ 0.205 µM)
[2]
  MIC: 3.1 µg/mL (≈ 3.18 µM)
[23]
  EC50: > 2000 µg/mL
[24]
  EC50: > 2000 µg/mL
[21]
  MIC: 13 µg/mL (≈ 13.3 µM)

## N=C(N)NCCC[C@@H]1NC(=O)[C@H](CCCNC(=N)N)NC(=O)[C@H](CCCNC(=N)N)NC(=O)[C@H](Cc2ccc3ccccc3c2)NC(=O)[C@H](Cc2ccc3ccccc3c2)NC(=O)[C@H](Cc2ccc3ccccc3c2)NC(=O)[C@H](CCCNC(=N)N)NC1=O (cyclo(RRRR[2Nal][2Nal][2Nal]))
[25]
  MIC: 3.1 µg/mL (≈ 2.55 µM)
[26]
  MIC: 12.5 µg/mL (≈ 10.3 µM)

## N=C(N)NCCC[C@@H]1NC(=O)[C@H](CCCNC(=N)N)NC(=O)[C@H](CCCNC(=N)N)NC(=O)[C@H](C(c2ccccc2)c2ccccc2)NC(=O)[C@H](C(c2ccccc2)c2ccccc2)NC(=O)[C@H](C(c2ccccc2)c2ccccc2)NC(=O)[C@H](CCCNC(=N)N)NC1=O (cyclo(RRRR[Dip][Dip][Dip]))
[25]
  MIC: 3.1 µg/mL (≈ 2.39 µM)
[26]
  MIC: 12.5 µg/mL (≈ 9.66 µM)

## CC(C)(C)c1cc(C(C)(C)C)c2[nH]c(C(C)(C)C)c(C[C@H](NC(=O)[C@@H](N)CCCNC(=N)N)C(=O)N[C@@H](CCCNC(=N)N)C(=O)NCCc3ccccc3)c2c1 [LTX-109]
[1]
  MIC: 2.5 µg/mL (≈ 3.17 µM)
[2]
  MIC: 7.5 µg/mL (≈ 9.52 µM)

## H-WRWRW-NH2
[1]
  MIC: 10 µg/mL
[2]
  MIC: 15 µg/mL
